According to patent US20070259055A1, “Method of deactivating dust mite allergens” (priority 2000, published 2007):

Target: T1, house dust mite (Dermatophagoides pteronyssinus) allergen (Der-pl) (Dermatophagoides pteronyssinus, UniProt P08176)
T1 construct: Test dust had been obtained from household vacuum cleaner bags; from tissue; host or cells: house dust (British; vacuum cleaner bags), sieved fraction smaller than 53 microns
T1 sequence (P08176 99-320): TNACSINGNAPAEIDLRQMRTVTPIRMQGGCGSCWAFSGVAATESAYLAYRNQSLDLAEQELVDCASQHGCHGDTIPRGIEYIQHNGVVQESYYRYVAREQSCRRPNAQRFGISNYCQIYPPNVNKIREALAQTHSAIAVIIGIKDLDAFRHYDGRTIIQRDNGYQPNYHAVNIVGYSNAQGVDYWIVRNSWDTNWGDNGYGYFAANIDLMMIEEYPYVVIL
Assay: Example 3: test liquid sprayed onto dust in petri dish, Der-pl ELISA
Assay type: biochemical
Experimental: Dust was collected from vacuum cleaner bags and passed through a series of sieves down to 53 microns. Clean petri dishes were labeled with the chemical to be tested and lined with filter paper. 0.3 g of dust was added to each dish and spread evenly over the filter paper. 0.1 g of dust was then removed from the filter paper for a control sample. The remaining dust was then redistributed evenly over the filter paper. 2.4 g+/−0.2 g of test chemical was sprayed onto the dust sample. The dust sample was left open to the air until the filter paper was dry. The dust was collected into eppendorfs and the weight of dust recovered was measured. 1 ml of 1% Bovine Serum Albumin-Phosphate Buffered Saline-Tween (BSA-PBS-T) was added to the control samples. 1 ml of 5% BSA-PBS-T was added to the test samples. The samples were left overnight in the refrigerator and then centrifuged for 5 minutes at 13,000 rpm. The supernatant was pipetted into an eppendorf for assay by Der-pl ELISA.
The test liquids were: • Distilled water • 2% Tea Tree Oil in distilled water (plus 0.1% Tween) • 2% Citronella Oil in distilled water (plus 0.10% Tween) • 1% Thymol in distilled water (plus 0.8% Tween) • 2% Hinoki Oil in distilled water (plus 0.1% Tween) • 2% Tannic Acid
Five replicates were completed for each test liquid. The allergen content of the control for each replicate was compared with the test sample allergen. The percentage reductions in allergen between the control and the test were determined for each replicate.

Compound | allergen reduction more than the water alone tests (test liquid sprayed onto dust (2% Tea Tree Oil or 1% Thymol in distilled water plus Tween), average of five replicates, water alone 34.2%) | significance of allergen reduction versus water tests (test liquid sprayed onto dust, t-test versus water) | average allergen reduction (2% Tannic Acid sprayed onto dust, positive control, five replicates)
Cc1ccc(C(C)C)c(O)c1 [Thymol, 6-isopropyl-m-cresol] | 23.6% | significant | 
O=C(OC[C@H]1O[C@@H](OC(=O)c2cc(O)c(O)c(OC(=O)c3cc(O)c(O)c(O)c3)c2)[C@H](OC(=O)c2cc(O)c(O)c(OC(=O)c3cc(O)c(O)c(O)c3)c2)[C@@H](OC(=O)c2cc(O)c(O)c(OC(=O)c3cc(O)c(O)c(O)c3)c2)[C@@H]1OC(=O)c1cc(O)c(O)c(OC(=O)c2cc(O)c(O)c(O)c2)c1)c1cc(O)c(O)c(OC(=O)c2cc(O)c(O)c(O)c2)c1 [tannic acid] |  |  | 99.15%
